The results in this text go back to patent US9884863B2, “STAT3 inhibitor” (Board of Regents, The University of Texas System, priority 2013, dated 2018).

Holding throughout (assay type): cell-based, human
Experiment [1] concerns MDA-MB-231. Nature of the experiment: MTS cell proliferation assay, MDA-MB-231. Particulars: Homo sapiens, MDA-MB-231, 72 h, read-out: IC50 MDA-MB-231 (Table 4). The procedure, abridged: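 Cells are exposed to DMSO or STAT3 inhibitors at 0.01-100 μM for 72 h, or at 1, 5 and 10 μM. Proliferation is read by MTS absorbance at 550 or 560 nm after 1 h at 37 °C. Each concentration is run in quadruplicate wells.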

Experiment [2] concerns STAT3 promoter activity in MDA-MB-231 cells. Nature of the experiment: Transient transfection and dual luciferase reporter assay (pSTAT3-Luc). To be noted: 24 h. Here is the method:
MDA-MB-231 cells were pre-treated with niclosamide or 11 at different concentrations for 24 h. The STAT3 promoter activity in MDA-MB-231 cells was determined after transient transfecting with pSTAT3-Luc vector.
Transient Transfection and Dual Luciferase Reporter Assays. MBA-MB-231 cells were seeded in 24-well plate at a density of 5×10^4 cells/well in RPMI-1640 medium containing 10% FBS and 1% penicillin-streptomycin. Transient transfections were performed 4 h after plating, using the method described previously (Rees, D. C. et al., 2004; Shen, Q. et al., 2008). Total amount of DNA for transfections was 0.5 μg/well, including pSTAT3-Luc (95%, obtained from Panomics, Cat# LR0077) and internal control vector renilla (5%, from Promega, Madison, Wis., USA). 5 h after transfection, the cells were treated with compound […] for 24 h, then reporter activity was evaluated using dual luciferase reporter assay kit (Promega, Madison, Wis., USA) on an Omega™ Microplate Luminometer (BMG LABTECH Inc., NC, USA). Relative luciferase units were the ratio of the absolute activity of firefly luciferase to that of renilla luciferase. Experiments were conducted with triplicates and results are representatives of at least 3 independent experiments.

The test system of experiment [3] is STAT family, STAT3-dependent genes and JAKs in MDA-MB-231 cells. As to the kind of experiment: Western blot analysis, MDA-MB-231 cells. To be noted: 24 h; Example 3 numbering. Here is the method: Blocking STAT3 signaling in many different tumor cells leads to induce growth arrest and apoptosis (Turkson, J. et al., 2000; Bromberg, J., 2002; Zhang, X. et al., 2012).
Western Blot Analysis. Protein levels were determined by Western blot using the previously described methods (Shen, Q. et al., 2008). Total cell lysates were prepared from MDA-MB-231 cells. Protein concentrations were measured using the BCA Protein Assay Reagent (Pierce, Rockford, Ill., USA). Equal amounts of total cellular protein extract (40 μg) were resuspended in denaturing sample loading buffer (0.5 M Tris-HCl, pH 6.8, 10% SDS, 0.1% bromophenol blue, and 20% glycerol), separated by electrophoresis on a 10% polyacrylamide SDS-PAGE gel and then electrophoretically transferred to a nitrocellulose membrane (Thermo Scientific, Ill., USA) at 100 Volts for 1 h at 4° C. The membrane was then incubated in a blocking solution containing 5% non-fat milk and 1% Tween 20 in TBS for 1 h. The membrane was then incubated with antibodies specific for: phospho-STAT3-pY705 (1:3000, Epitomics, #2236-1), STAT3 (1:2000, Cell Signaling, #4904), Caspase-3-cleaved (1:2000, Epitomics, #1476-1), Cyclin D1 (1:10000, Epitomics, #2261-1) and β-actin (1:10000, Sigma, clone AC-15). An anti-rabbit or anti-mouse secondary antibody (Amersham, Piscataway, N.J.) was used at 1:4000 dilution. The Western blotted bands were visualized using ECL procedure according to the manufacturer's instructions (Amersham).
In general terms: Immunoblotting shows a protein as a band on a membrane.

The subject of experiment [4] is MDA-MB-231 cells. As to the kind of experiment: Apoptosis assay (annexin V, flow cytometry). To be noted: dose-dependent; Example 3 numbering. Here is the method: Cell Cycle Assay and Apoptosis Assay: Cell cycle and apoptosis kits (#MCH100106 and #MCH100105, Millipore, Mass.) were used. […] 24 and 48 h after drug treatment, both adherent and floating cells were collected, washed once with PBS and fixed in cold ethanol for at least 4 h before cell cycle analysis. The fixed cells were then washed twice with PBS and resuspended in 200 μL cell cycle detection reagent, incubated for 30 minutes in dark at room temperature. Cell cycle distribution was measured by the Muse Cell Analyzer with Muse™ Cell Cycle. Similarly, MDA-MB-231 cells with the same treatments were prepared for apoptosis assay. After washing with PBS, resuspended cells were incubated with 100 μL PBS containing 1% BSA and 100 μL Annexin V and dead cell detection reagent in dark for 20 minutes at room temperature. Apoptosis was measured immediately using the Muse Cell Analyzer with the Muse™ Apoptosis Program.

One may read the IC50 as the point on the concentration scale where inhibition reaches its midpoint. Regarding `O=C(Nc1ccc([N+](=O)[O-])cc1Cl)c1cc(Cl)ccc1O` [niclosamide, reference compound], the IC50 in experiment [1] stood at 790 nM. The “STAT3 promoter activity at 20 μM, in words” value in experiment [2] was “suppressed”. In experiment [3], the “phosphorylated STAT3 at Tyr-705 (Example 3)” value is “suppressed” and the “total STAT3 level (Example 3)” value is “reduced”. Further, in experiment [4], the “apoptosis, annexin V (Example 3)” value is recorded as “activated apoptosis”.
